Results taken from US20180289008A1, “METHODS FOR WILDFIRE CONTROL, INVASIVE PLANT CONTROL, AND RESIDUAL CONTROL OF INVASIVE PLANTS” (priority 2017, published 2018).

System: invasive winter annual grass (downy brome, feral rye, Japanese brome)
Assay: Invasive winter annual grass field efficacy studies, biomass as percent of non-treated (Sites 1 and 2 combined)
Format: in vivo, Bromus tectorum, Secale cereale, Bromus japonicus
Conditions: 1 YAT, across all five application timings, 73 and 102 g·ai·ha^−1; POST treatments with glyphosate
Method: In year 1, field experiments were conducted to compare the effectiveness of indaziflam and imazapic for long-term invasive winter annual grass control, and to evaluate the response of the native plant communities. The experiments were established at two sites on the Colorado Front Range dominated by invasive winter annual grasses. Site 1 (lat 40° 15′2″N, long 105° 12′56″W) was infested with equal amounts of downy brome and Japanese brome. Site 2 (lat 40° 43′23″N, long 104° 55′58″W) was infested with feral rye. These two sites were approximately 58 km apart. Site 1 was located on Rabbit Mountain Open Space (Boulder County). Site 2 was located on a Colorado Parks and Wildlife Area (Larimer County). Before herbicide application in July, visual estimates were made across the entire study area of percentage of living canopy cover for all species present at both sites.
Site 1 was characterized by ˜80-100% downy brome and Japanese brome canopy cover with a dense fine-fuel layer, e.g., thatch, (2 to 5 cm), and a scattered stand of co-occurring species (˜0-10% canopy cover, Table 4). […]
Biomass harvests and species richness evaluations were conducted in August (year 2 and year 3) to evaluate invasive winter annual grass control and response of co-occurring species. […] Additionally, at Site 1, species richness was calculated for each treatment as a simple estimate of biological diversity. […]

Cc1ccc2c(c1)[C@H](Nc1nc(N)nc(C(C)F)n1)[C@@H](C)C2 (mixture of isomers) [Indaziflam, N2-[(1R,2S)-2,3-dihydro-2,6-dimethyl-1H-inden-1-yl]-6-[(1RS)-1-fluoroethyl]-1,3,5-triazine-2,4-diamine]
invasive winter annual grass control: > 99%
